Source: the supplement of paper PMC11208160

Experiment: recombinant barcode read abundance after kanamycin selection (control-corrected) (log10(CPM+1)); higher = more efficient recombination; sequences stand for … in AGTGCAGAGAAAATCGGCCAGTTTTCTCTGCCTGCAGTCCGCATGCCGT…AGATTTATGCAGCGGACTGCCTTTCTCCCAAAGTGATAAACCGGACAGTATCATGGACCGGTTTTCCCGGTAATCCGTATTTGCAAGGTTGGTTTCACT; site = the 11-nt target
Method: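 Pooled E. coli target-specificity screen for the IS621 bridge recombinase. Each library plasmid pairs an 11-nt target (CT core) with a bridge RNA whose target-binding loop (9-nt LTG + 4-nt RTG) is reprogrammed; the rest of the 177-nt WT IS621 bridge RNA scaffold is fixed. The plasmid is co-electroporated with a WT donor plasmid; recombinase is induced with 0.1 mM IPTG and recombinants are selected on kanamycin. Recombinant barcodes are sequenced, converted to CPM, averaged over two biological replicates and corrected by the unselected control CPM. Molecule = full bridge RNA written as DNA: LTG = specificity nt 1-9, RTG = reverse complement of specificity nt 8-11, in the WT scaffold.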
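Further: IS621 recombinase and bridge RNA in Escherichia coli cells.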

Sequence	recombinant barcode read abundance (log10)
ACTAGTCCTTGGGTTCTAACCTGTTGCCT (site ACTAGTCCTAA)	0.233
ACTAGTCCTTGGGTTCTAACCTGTTGCCT (site ACTAGTCCTAC)	0.649
ACTAGTCCTTGGGTTCTAACCTGTTGCCT (site ACTAGTCCTAG)	0.337
ACTAGTCCTTGGGTTCTAACCTGTTGCCT (site ACTAGTCCTAT)	0.0393
ACTAGTGCTTGGGTTCTAACCTGTTGCCT (site AATAGTGCTAG)	0.111
ACTAGTGCTTGGGTTCTAACCTGTTGCCT (site ACTAGTGCTAG)	0.117
ACTAGTGCTTGGGTTCTAACCTGTTGCCT (site AGTAGTGCTAG)	0.0194
ACTAGTGCTTGGGTTCTAACCTGTTGCCT (site ATTAGTGCTAG)	0.0112
ACTCACTCTTGGGTTCTAACCTGTTGCCT (site ACTCACTCTAG)	2.04
ACTCACTCTTGGGTTCTAACCTGTTGCCT (site CGATCTCCTGT)	0.0794
ACTCGGCCTTGGGTTCTAACCTGTTGCGA (site ACTCGGCCTTC)	2.11
ACTCGGCCTTGGGTTCTAACCTGTTGCGA (site ACTGGGCCTTC)	0.172
ACTCGGCCTTGGGTTCTAACCTGTTGCGT (site ACTCGGCCTAC)	2.56
ACTCGGCCTTGGGTTCTAACCTGTTGCGT (site ACTCGGCCTAG)	0.0703
ACTCTAACTTGGGTTCTAACCTGTTGCTT (site ACTATAACTAA)	0.154
ACTCTAACTTGGGTTCTAACCTGTTGCTT (site ACTCTAACTAA)	0.121
ACTCTAACTTGGGTTCTAACCTGTTGCTT (site ACTGTAACTAA)	0.0269
ACTCTAACTTGGGTTCTAACCTGTTGCTT (site ACTTTAACTAA)	0.0201
ACTGGTTCTTGGGTTCTAACCTGTTGCCG (site ACTGGTTCTCG)	0.696
ACTGGTTCTTGGGTTCTAACCTGTTGCCG (site TACTCACCTAA)	0.0451
ACTGTCACTTGGGTTCTAACCTGTTGCGG (site ACTGTCACTCC)	3.28

Sequence	recombinant barcode read abundance (log10)
ACTGTCACTTGGGTTCTAACCTGTTGCGG (site GTGTATTCTAG)	0.046
ACTTAGACTTGGGTTCTAACCTGTTGCCT (site ACTTAGACTAG)	1.02
ACTTAGACTTGGGTTCTAACCTGTTGCCT (site ACTTAGACTCG)	0.313
ACTTAGACTTGGGTTCTAACCTGTTGCCT (site ACTTAGACTGG)	0.258
ACTTAGACTTGGGTTCTAACCTGTTGCCT (site ACTTAGACTTG)	0
ACTTAGACTTGGGTTCTAACCTGTTGCGG (site ACTTAGACTCC)	2.56
ACTTAGACTTGGGTTCTAACCTGTTGCGG (site TCTTAGACTCC)	0.416
ACTTAGCCTTGGGTTCTAACCTGTTGCCT (site ACTTAGCCTAG)	1.33
ACTTAGCCTTGGGTTCTAACCTGTTGCCT (site ACTTAGCCTAT)	0.0989
ACTTCCACTTGGGTTCTAACCTGTTGCCT (site ACTTCCACTAG)	0.613
ACTTCCACTTGGGTTCTAACCTGTTGCCT (site CCTTCCACTAG)	0.0483
ACTTCCACTTGGGTTCTAACCTGTTGCCT (site GCTTCCACTAG)	0.0573
ACTTCCACTTGGGTTCTAACCTGTTGCCT (site TCTTCCACTAG)	0.111
ACTTCTACTTGGGTTCTAACCTGTTGCTA (site ACATCTACTTA)	0.141
ACTTCTACTTGGGTTCTAACCTGTTGCTA (site ACTTCTACTTA)	0.0751
ACTTGAACTTGGGTTCTAACCTGTTGCCT (site ACATGAACTAG)	0.419
ACTTGAACTTGGGTTCTAACCTGTTGCCT (site ACCTGAACTAG)	0.0239
ACTTGAACTTGGGTTCTAACCTGTTGCCT (site ACGTGAACTAG)	0.146
ACTTGAACTTGGGTTCTAACCTGTTGCCT (site ACTTGAACTAG)	0.383
ACTTGAACTTGGGTTCTAACCTGTTGCTT (site ACTTGAACTAA)	0.0959
